We go through 19 compounds from ChEMBL document CHEMBL6074692, “Design, synthesis, and evaluation of novel benzofuran and pyrazole-based derivatives as dual AChE/BuChE inhibitors with antioxidant properties for Alzheimer's disease management” (Eur J Med Chem, 2025).

pIC50: −log10 of the molar value. In brackets after ≈: the same amount, converted by molar mass. Activity calls are given as the source filed them. The rule behind the calls is not given here.

In one data set the target is Cholinesterase (Homo sapiens, UniProt P06276). As to the kind of experiment: Inhibition of BuChE (unknown origin).
The target in data set [1] is T1, Acetylcholinesterase (Homo sapiens, UniProt P22303). In words: Inhibition of AChE (unknown origin) by Ellman's method. (In general: DTNB colorimetry detects thiols as they appear.)
The nature of data set [2]: Antioxidant activity assessed as DPPH radical scavenging activity. The format is functional. In general terms: DPPH is a stable violet radical that fades when it is reduced.
Data set [3] is described as follows: Toxicity in male Wistar rat assessed as MPV level at 10 mg/kg, po (reference value: 7.01 +/- 0.28 fL). The data set is classed as organism-based. To be noted: in vivo.
The nature of data set [4]: Toxicity in male Wistar rat assessed as ALT level at 10 mg/kg, po (reference value: 42.18 +/- 3.35 U/L). The data set is classed as organism-based. To be noted: in vivo.
A short description of data set [5]: Toxicity in male Wistar rat assessed as MCH level at 10 mg/kg, po (reference value: 18.50 +/- 1.52 pg). The format is organism-based. To be noted: in vivo.
Data set [6] can be described thus: Toxicity in male Wistar rat assessed as HB level at 10 mg/kg, po (reference value: 13.11 +/- 0.48 g/dL). The data set is classed as organism-based. To be noted: in vivo.
Data set [7] can be described thus: Toxicity in male Wistar rat assessed as AST level at 10 mg/kg, po (reference value: 78.16 +/- 9.37 U/L). To be noted: in vivo. The data set is classed as organism-based.
Data set [8] is described as follows: Toxicity in male Wistar rat assessed as MCV level at 10 mg/kg, po (reference value: 59.92 +/- 2.2 fL). The data set is classed as organism-based. To be noted: in vivo.
The nature of data set [9]: Toxicity in male Wistar rat assessed as histopathological change in kidney at 10 mg/kg, po by H and E staining based analysis. To be noted: in vivo. The data set is classed as organism-based.
Data set [10] can be described thus: Chronic toxicity in male Wistar rat assessed as drug tolerance at 10 mg/kg, po measured after 1 month. The data set is classed as organism-based. To be noted: in vivo, 730 h, time 1 months.
A short description of data set [11]: Toxicity in male Wistar rat assessed as ALP level at 10 mg/kg, po (reference value: 137.18 +/- 7.04 U/L). The data set is classed as organism-based. To be noted: in vivo.
The nature of data set [12]: Toxicity in male Wistar rat assessed as MCHC level at 10 mg/kg, po (reference value: 32.52 +/- 2.48 g/dL). The format is organism-based. To be noted: in vivo.
Data set [13] is described as follows: Toxicity in male Wistar rat assessed as creatinine level at 10 mg/kg, po (reference value: 0.68 +/- 0.1 mg/dL). To be noted: in vivo. The data set is classed as organism-based.
Data set [14] is described as follows: Toxicity in male Wistar rat assessed as RBC level measured per million cells at 10 mg/kg, po (reference value: 6.96 +/- 0.45 /cm). To be noted: in vivo. The format is organism-based.
The nature of data set [15]: Toxicity in male Wistar rat assessed as total bilirubin level at 10 mg/kg, po (reference value: 0.68 +/- 0.11 mg/dL). The data set is classed as organism-based. To be noted: in vivo.
Data set [16] is described as follows: Toxicity in male Wistar rat assessed as decrease in proliferation of Kupffer cells at 10 mg/kg, po by H and E staining based analysis. The data set is classed as organism-based. To be noted: in vivo.
The target in data set [17] is T1, Acetylcholinesterase. As to the kind of experiment: Mixed inhibition of AChE (unknown origin).
Data set [18] is described as follows: Toxicity in male Wistar rat assessed as RDW-CV level at 10 mg/kg, po (reference value: 16.93 +/- 1.69 %). The format is organism-based. To be noted: in vivo.
Data set [19] can be described thus: Toxicity in male Wistar rat assessed as albumin level at 10 mg/kg, po (reference value: […]). The format is organism-based. To be noted: in vivo.
The nature of data set [20]: Chronic toxicity in male Wistar rat assessed as negative side effects at 10 mg/kg, po measured after 1 month. The format is organism-based. To be noted: in vivo, 730 h, time 1 months.
The nature of data set [21]: Toxicity in male Wistar rat assessed as histological change in renal parenchyma at 10 mg/kg, po by H and E staining based analysis. The data set is classed as organism-based. To be noted: in vivo.
Data set [22] is described as follows: Toxicity in male Wistar rat assessed as urea level at 10 mg/kg, po (reference value: 29.89 +/- 1.84 mg/dL). The format is organism-based. To be noted: in vivo.
Data set [23] in a line: Toxicity in male Wistar rat assessed as WBC level at 10 mg/kg, po (reference value: 4.60 +/- 0.61 10^3/cmm). To be noted: in vivo. The data set is classed as organism-based.
A short description of data set [24]: Toxicity in male Wistar rat assessed as haematocrit level at 10 mg/kg, po (reference value: 39.01 +/- 1.12 %). The data set is classed as organism-based. To be noted: in vivo.

T1 sequence (P22303 whole entry): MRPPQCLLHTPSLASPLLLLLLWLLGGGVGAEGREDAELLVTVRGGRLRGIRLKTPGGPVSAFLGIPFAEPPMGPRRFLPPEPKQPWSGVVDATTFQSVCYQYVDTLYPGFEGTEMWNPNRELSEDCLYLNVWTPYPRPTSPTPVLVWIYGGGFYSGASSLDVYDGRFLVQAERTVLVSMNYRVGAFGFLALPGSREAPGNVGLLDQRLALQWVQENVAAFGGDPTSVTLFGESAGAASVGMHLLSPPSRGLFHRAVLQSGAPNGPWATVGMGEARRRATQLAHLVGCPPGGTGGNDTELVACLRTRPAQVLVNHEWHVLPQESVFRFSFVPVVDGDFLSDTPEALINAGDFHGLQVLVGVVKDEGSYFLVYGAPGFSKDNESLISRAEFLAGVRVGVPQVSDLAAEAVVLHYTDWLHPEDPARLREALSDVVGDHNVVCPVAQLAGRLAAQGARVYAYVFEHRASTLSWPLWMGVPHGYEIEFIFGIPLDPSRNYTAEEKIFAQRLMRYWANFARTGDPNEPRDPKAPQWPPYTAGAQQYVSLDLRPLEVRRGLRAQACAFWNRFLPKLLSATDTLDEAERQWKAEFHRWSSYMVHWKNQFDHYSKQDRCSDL
Cholinesterase, sequence (P06276 whole entry): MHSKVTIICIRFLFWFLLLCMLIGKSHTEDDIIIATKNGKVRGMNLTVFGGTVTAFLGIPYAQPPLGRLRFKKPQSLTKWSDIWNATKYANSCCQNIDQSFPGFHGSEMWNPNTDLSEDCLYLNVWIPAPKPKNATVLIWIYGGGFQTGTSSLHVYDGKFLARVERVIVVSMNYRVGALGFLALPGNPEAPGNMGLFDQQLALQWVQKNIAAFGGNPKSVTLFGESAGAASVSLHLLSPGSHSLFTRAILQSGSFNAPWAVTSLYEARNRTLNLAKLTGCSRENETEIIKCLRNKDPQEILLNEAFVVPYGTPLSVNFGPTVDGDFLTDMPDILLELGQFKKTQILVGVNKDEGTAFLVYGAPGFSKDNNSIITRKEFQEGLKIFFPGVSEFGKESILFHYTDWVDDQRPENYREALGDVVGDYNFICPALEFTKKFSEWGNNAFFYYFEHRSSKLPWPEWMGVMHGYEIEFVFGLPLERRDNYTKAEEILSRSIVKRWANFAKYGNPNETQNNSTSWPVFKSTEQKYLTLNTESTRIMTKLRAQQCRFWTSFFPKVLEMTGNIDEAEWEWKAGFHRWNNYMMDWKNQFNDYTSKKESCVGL

As for `O=C(COc1ccc2occ(C(=O)c3ccccc3)c2c1)Nc1ccccc1`, the pIC50 on Cholinesterase was 5.47; at Acetylcholinesterase [1], 5.68. Further, the 50% inhibitory concentration (IC50) in data set [2] stood at 587 µg/mL (≈ 1580 µM).
For the compound `Cc1ccc(NC(=O)COc2ccc(O)c(-c3cn[nH]c3-c3ccc(C)cc3)c2)cc1`, the pIC50 against Cholinesterase is 5.06; on Acetylcholinesterase [1], 5.32. Also, the IC50 in data set [2] came out at 4.26 µg/mL (≈ 10.3 µM).
Compound `Cc1ccc(NC(=O)COc2ccc3occ(C(=O)c4ccc(C)cc4)c3c2)cc1` had a pIC50 at Acetylcholinesterase [1] of 4.23. Further, in data set [2], the IC50 was 240 µg/mL (≈ 601 µM).
On to `O=C(COc1ccc(O)c(-c2cn[nH]c2-c2ccccc2)c1)Nc1ccccc1`, for which the negative logarithm of the IC50 (pIC50) on Acetylcholinesterase [1] was 4.30. Besides, the concentration for half-maximal inhibition (IC50) in data set [2] amounted to 3.07 µg/mL (≈ 7.97 µM).
`O=C(COc1ccc(O)c(-c2cn[nH]c2-c2ccc(Cl)cc2)c1)Nc1ccccc1` had a pIC50 against Acetylcholinesterase [1] of 4.86. Moreover, the IC50 in data set [2] turned out to be 5.87 µg/mL (≈ 14 µM).
The matching figures for `O=C(COc1ccc2occ(C(=O)c3ccc(Cl)cc3)c2c1)Nc1ccc(Cl)cc1`: 4.74 and 630 µg/mL (≈ 1430 µM).
For the compound `Cc1ccc(-c2[nH]ncc2-c2cc(OCC(=O)Nc3ccccc3)ccc2O)cc1`, the negative-log IC50 (pIC50) on Acetylcholinesterase [1] was 4.39. For the same compound, the IC50 in [2] was 3.24 µg/mL (≈ 8.11 µM).
With `Cc1ccc(NC(=O)COc2ccc(O)c(-c3cn[nH]c3-c3ccc(Cl)cc3)c2)cc1`, on Acetylcholinesterase [1], the pIC50 was 4.36. Also, the IC50 in data set [2] is 4.94 µg/mL (≈ 11.4 µM).
For the compound `O=C(COc1ccc2occ(C(=O)c3ccc(Cl)cc3)c2c1)Nc1ccccc1`, the values for the pIC50 against Cholinesterase and at Acetylcholinesterase [1] were 5.90 and 6.02, respectively. The IC50 in data set [2] was determined as 153 µg/mL (≈ 377 µM).
As for `O=C(COc1ccc(O)c(-c2cn[nH]c2-c2ccccc2)c1)Nc1ccc(Cl)cc1`, on Acetylcholinesterase [1], the pIC50 is 4.39. Also, in data set [2], the IC50 was found to be 2.59 µg/mL (≈ 6.17 µM).
For the compound `O=C(COc1ccc2occ(C(=O)c3ccccc3)c2c1)Nc1ccc(Cl)cc1`, the negative-log IC50 (pIC50) against Acetylcholinesterase [1] was 4.39. In addition, in data set [2], the IC50 came out at 132 µg/mL (≈ 325 µM).
For `Cc1ccc(-c2[nH]ncc2-c2cc(OCC(=O)Nc3ccc(Cl)cc3)ccc2O)cc1`, the Activity in data set [3] is 6.91 fL; in data set [4], 42.97 U/L; in data set [5], 19.51 pg; in [6] it was 13.28 g/dL; in [7], 76.11 U/L; in data set [8], 60.31 fL. Moreover, the Activity result is “Non-toxic” in data set [9]; “Non-toxic” in data set [10]; 137.33 U/L in [11]; 32.59 g/dL in data set [12]; 0.69 mg/dL in [13]; 7.14 10^6/mm3 in data set [14]. Also, the Activity in data set [15] is 0.63 mg/dL; in data set [16], “Toxic”; in [18], 16.64%; in data set [19], 3.31 g/dL; in data set [20], “Non-toxic”; in data set [21], “Non-toxic”. The Activity is 30.25 mg/dL in data set [22], 4.86 10^3/mm3 in [23] and 38.32% in [24]. Moreover, the pIC50 against Cholinesterase is 5.37; against Acetylcholinesterase [1], 5.54. Besides, the IC50 in [2] is 3.15 µg/mL (≈ 7.26 µM). In addition, the inhibition result at Acetylcholinesterase [17] is “Active”.
On Acetylcholinesterase [1], `Cc1ccc(NC(=O)COc2ccc3occ(C(=O)c4ccccc4)c3c2)cc1` had a negative-log IC50 (pIC50) of 4.67. The 50% inhibitory concentration (IC50) in [2] came out at 262 µg/mL (≈ 680 µM).
Consider `Cc1ccc(C(=O)c2coc3ccc(OCC(=O)Nc4ccccc4)cc23)cc1`, for which the pIC50 on Cholinesterase is 4.73; against Acetylcholinesterase [1] it was 5.49. Moreover, the IC50 in [2] was 363 µg/mL (≈ 942 µM).
For `Cc1ccc(C(=O)c2coc3ccc(OCC(=O)Nc4ccc(Cl)cc4)cc23)cc1`, the pIC50 against Acetylcholinesterase [1] is 4.28. Besides, the IC50 in data set [2] is 732 µg/mL (≈ 1740 µM).
Compound `Cc1ccc(NC(=O)COc2ccc(O)c(-c3cn[nH]c3-c3ccccc3)c2)cc1` gave a pIC50 against Acetylcholinesterase [1] of 4.53. Besides, the IC50 in [2] stood at 9.93 µg/mL (≈ 24.9 µM).
For `O=C(COc1ccc(O)c(-c2cn[nH]c2-c2ccc(Cl)cc2)c1)Nc1ccc(Cl)cc1`, in that order: 3.92 and 3.18 µg/mL (≈ 7 µM).
For the compound `O=C1O[C@H]([C@@H](O)CO)C(O)=C1O` [ASCORBIC ACID], the IC50 in data set [2] was 2.85 µg/mL (≈ 16.2 µM).
Compound `Cc1ccc(NC(=O)COc2ccc3occ(C(=O)c4ccc(Cl)cc4)c3c2)cc1` had a pIC50 on Acetylcholinesterase [1] of 4.92. Besides, the IC50 in data set [2] was found to be 375 µg/mL (≈ 893 µM).

In general, pIC50 refers to −log10 of the IC50, conventionally taken in molar units. Lower therefore signals a large IC50. What is called IC50 is the concentration needed to halve the response being measured.
